Laboratory results: US20230181554A1, “AGENT FOR PROTECTING AND/OR REGENERATING NEUROMUSCULAR JUNCTION” (ONO PHARMACEUTICAL CO., LTD., priority 2020, published 2023)

Tests used:
[1] = test system: co-culture of mouse myoblast cell line C2C12 cells into which human mutant SOD1 (G93A) was introduced and mouse primary cultured motor neurons; assay: Neuromuscular junction formation in co-culture, α-bungarotoxin-positive area; assay type: cell-based; details: for positive area of the neuromuscular junction: day 11; for concentration from which the positive area of the neuromuscular junction was significantly increased: α-bungarotoxin-positive area on day 11 after treatment, versus control (Dunnett's test)
[2] = test system: mouse myoblast cell line C2C12 cells into which human mutant SOD1 (G93A) was introduced; assay: FF-MAS and 14-dehydrozymosterol accumulation action in myotube-like differentiated C2C12 cells (LC/APCI-MS/MS); assay type: cell-based; details: for intracellular FF-MAS concentration: cells recovered at 3 and 24 hours after treatment, DMSO treatment group below the detection limit; for concentration of 14-dehydrozymosterol: same treatment as for FF-MAS, cells recovered at 3 and 24 hours
Protocol: After mouse myoblast cell line C2C12 cells into which human mutant SOD1 (G93A) was introduced were myotube-like differentiated, the cells were treated with sterol C14-reductase inhibitors (TM7SF2 inhibitors) (amorolfine, ziprasidone, and ifenprodil), and the fluctuation of sterol in the cells was evaluated. In other words, in order to differentiate C2C12 cells into myotubes, C2C12 cells that had been cultured using 15% FBS-DMEM (Dulbecco's modified Eagle's medium containing 15% fetal bovine serum and 100 units/mL penicillin-100 μg/mL streptomycin) were cultured for 2 days in a culture flask after the medium was replaced with a low-serum medium (Dulbecco's modified Eagle's medium containing 0.5% FBS, 1% insulin-transferrin-selenium, and 100 units/mL penicillin-100 μg/mL streptomycin). Then, in order to remove proliferating undifferentiated cells, the medium was replaced with a low-serum medium containing 10 μmol/L arabinocytidine (AraC), and the cells were further cultured for 2 days. The myotube-like differentiated C2C12 cells were detached from the culture flask by treatment with 0.25% trypsin-1 mmol/L EDTA, and then the cells were seeded on a 3.5-cm culture dish coated with Matrigel at 2.4×10^5 cells/dish, and cultured for 3 days. After treatment with a sterol C14-reductase inhibitor (TM7SF2 inhibitor) or 0.03% DMSO, the cells were recovered at 3 and 24 hours. After removing the medium and washing with phosphate buffered saline (PBS), the cells were recovered with 200 µL of 90% methanol containing 1 μmol/L d7-cholesterol (internal standard substance), and further recovered again with 200 μL of a 90% methanol solution, so that a total of about 400 μL of a cell recovery solution was obtained. Then, 160 μL of this cell recovery solution was pretreated by a solid-phase extraction method using OASIS PRiME HLB glution Plate, and a sample eluted with methanol/IPA (1 : 1) was measured by high-performance liquid chromatography/atmospheric pressure chemical ionization-tandem mass spectrometry (LC/APCI-MS/MS), and each concentration in the recovery solution was calculated by an internal standard calibration curve method.

[3] = test system: C2C12 cells in which human mutant SOD1 (G93A) was overexpressed alone and mouse primary motor neurons; assay: Neuromuscular junction formation in co-culture, C2C12 overexpressing human mutant SOD1 (G93A) alone; assay type: cell-based; details: day 11
[4] = test system: C2C12 cells in which both human mutant SOD1 (G93A) and a human TM7SF2 gene were overexpressed and mouse primary motor neurons; assay: Neuromuscular junction formation in co-culture, C2C12 overexpressing human mutant SOD1 (G93A) and human TM7SF2; assay type: cell-based; details: same concentration range (0.1, 0.3, 1, and 3 μmol/L), day 11
[5] = test system: mouse primary cultured motor neurons; assay: Neurite outgrowth action in mono-culture of motor neurons; assay type: cell-based; details: total protrusion length on day 4 after treatment, versus control (Dunnett's test)
Protocol: In a mono-culture system of mouse primary cultured motor neurons, the neurite outgrowth action of a sterol C14-reductase inhibitor (TM7SF2 inhibitor) and FF-MAS was evaluated. The mouse primary cultured motor neurons were prepared from an embryonic day 13 mouse fetus. In other words, a mouse on day 13 of gestation was subjected to cervical dislocation and euthanized, and the abdomen was incised to extract the fetus. The fetus was decapitated, and then the spinal cord was extracted under a stereomicroscope. The spinal cord was treated with HBSS containing 0.25% trypsin at 37° C. for 15 minutes, then the supernatant was removed, washing was performed 3 times with HBSS, 2 mL of a dispersion solution was added, and pipetting was repeated with a tapered Pasteur pipette to prepare a cell suspension. The cell suspension was centrifuged (200 g, 5 minutes), 2 mL of a motor neuron medium was added to the sediment, the suspension was resuspended, and the number of cells was measured. The mouse primary cultured motor neurons suspended in the motor neuron medium were seeded on a 96-well imaging plate coated with poly-D-lysine at 1.5×10^4 cells/100 μL/well. […] The neurite length was evaluated by immunostaining the nuclei and protrusions of nerve cells. […] As primary antibodies, Anti-Neuron-specific beta-III Tubulin Antibody (R&D Systems, Inc., MAB1195, 1/1,000 dilution) and Anti-NeuN Antibody (Merck Millipore, ABN78, 1/500 dilution) diluted with a blocking solution were added in an amount of 50 and the plate was allowed to stand at 4° C. overnight. After washing 3 times with 100 to 150 μL/well of PBS, 50 μL/well of Alexa Fluor 647 goat anti-mouse IgG (H+L) (Invitrogen, A-21236, 1/1,000 dilution) and Alexa Fluor 488 goat anti-rabbit IgG (H+L) (Invitrogen, A-11034, 1/1,000 dilution) as secondary antibodies were added, and the plate was allowed to stand at room temperature for 1 hour while being shielded from light, and then washed 3 times with 100 to 150 μL/well of PBS. The stained plate was photographed using the Opera Phenix high-throughput high-content imaging system ([…] Japan). Images of 5 fields per well were acquired using an Alexa Fluor 647 wavelength filter for photographing neurites and an Alexa Fluor 488 wavelength filter for photographing nuclei of nerve cells, nuclei of nerve cells and neurites per field were analyzed by an analysis program, and the sum of neurite lengths per field was calculated. Taking the mean of the sum of neurite lengths in the vehicle group (0.03% DMSO or 0.2% ethanol) evaluated for each plate as 100%, the sum of neurite lengths in the sterol C14-reductase inhibitor (TM7SF2 inhibitor) and FF-MAS treatment groups was calculated.

[6] = test system: myasthenia gravis model rat; assay: Rat myasthenia gravis model (mAb35 induced), grip strength; assay type: in vivo; details: grip strength at 96 hours after induction by mAb35; repeated oral administration once a day; versus control (Dunnett's test)
Protocol: The efficacy of ifenprodil, which is a sterol C14-reductase inhibitor (TM7SF2 inhibitor), in a rat myasthenia gravis model was evaluated. The rat myasthenia gravis model is a model in which a neuromuscular junction (NMJ) is impaired and motor functions such as grip strength are declined by treating a rat with mAb35, which is an antibody against an anti-acetylcholine receptor. First, an anti-acetylcholine receptor antibody mAb35 (Bio X Cell, product number BE0123) as an inducing agent was intraperitoneally administered to a 5-week-old female LEW/CrlCrlj rat at a concentration of 0.29 mg/mL and a volume of 5 mL/kg to induce a pathological condition. Ifenprodil (MedChemExpress, product number HY-12882A) as a test substance was dissolved in water for injection (Otsuka Pharmaceutical Factory, Inc.) containing 2% DMSO so that the concentration is 0.1, 0.3, and 1 mg/mL to prepare an administration solution. Ifenprodil was repeatedly orally administered once a day at doses of […] from 9 hours after induction by administration of mAb35 to 4 days after induction as the evaluation end date. […] The grip strength was measured on the day before induction (pre-value). […] For quantitative evaluation of the grip strength, a grip strength measuring device Traction Meter (BrainScience idea Co., Ltd.) was used.

[7] = test system: rat primary Schwann cells; assay: Schwann cell differentiation-promoting action (MAG expression); assay type: cell-based; details: day 3 after treatment, versus control (Dunnett's test)
Protocol: The Schwann cell differentiation-promoting action of FF-MAS was evaluated in a culture system of rat primary Schwann cells. In other words, neonatal rats aged 0 to 2 days after birth were decapitated, then sterilized by being immersed in ethanol for disinfection, moved to a clean bench, and then washed with a recovery medium (Dulbecco's modified Eagle medium (Sigma Aldrich, product number D5921) without phenol red containing 1 vol % Antibiotic-Antimycotic (Antibiotic-Antimycotic 100×, Thermo Fisher Scientific, Inc., product number 15240062)). Thereafter, the dorsal root ganglion was extracted under a microscope and recovered in a 15 mL tube filled with the recovery medium. The recovered tube was centrifuged at 400 g for 3 minutes at room temperature, and the supernatant was removed. […] The number of cells in the filtered cell suspension was counted and adjusted to 2.0×10^5 cells/mL, and then the cells were seeded on a 96-well plate coated with poly-D-lysine at 100 μL/well each, and statically cultured in a CO2 incubator under conditions of 5% CO2, 95% air, and 37° C. […] The Schwann cell differentiation-promoting action was evaluated on the basis of the expression level of myelin-associated glycoprotein (hereinafter referred to as MAG). […]

**Q.** Which “positive area of the neuromuscular junction” value [1] does the source give for `COc1ccc(S(=O)(=O)N2CCC(N3CCC(C)CC3)CC2)cc1` [TASIN-1] here?
**A.** no significant increase

**Q.** With `CC(C)=CCC[C@@H](C)[C@H]1CC[C@H]2C3=C(CC[C@]12C)[C@@]1(C)CC[C@H](O)C[C@@H]1CC3` [zymosterol] as the compound, how does the “positive area of the neuromuscular junction” value ([1]; added at 0.05 to 10 μmol/L) read?
**A.** no significant increase

**Q.** `CCC(C)(C)c1ccc(CC(C)CN2C[C@@H](C)O[C@@H](C)C2)cc1` (stereo partly shown) [amorolfine] was tested. Which “intracellular FF-MAS concentration” value [2] did it give?
**A.** increase

**Q.** What about the “concentration of 14-dehydrozymosterol” value [2] of the same compound?
**A.** increase

**Q.** What about the “positive area of the neuromuscular junction” value ([3]; at 1 μmol/L) of the same compound?
**A.** significantly increased

**Q.** And the “positive area of the neuromuscular junction” value ([3]; at 3 mol/L)?
**A.** significantly increased

**Q.** And the “positive area of the neuromuscular junction” value [4]?
**A.** no increasing fluctuation

**Q.** What about the “concentration from which the sum of neurite lengths was significantly increased” value [5] of the same compound?
**A.** 0.3 µmol/L

**Q.** And the “concentration from which the positive area of the neuromuscular junction was significantly increased” value [1]?
**A.** 0.3 µmol/L

**Q.** How did the “concentration from which the positive area of the neuromuscular junction was significantly increased” value [1] turn out when `CC(C)=CCC[C@@H](C)[C@H]1CC=C2C3=C(CC[C@@]21C)[C@@]1(C)CC[C@H](O)C[C@@H]1CC3` [14-dehydrozymosterol, 5alpha-cholesta-8,14,24-trien-3beta-ol] was run?
**A.** 10 µmol/L

**Q.** Which “intracellular FF-MAS concentration” value [2] does the source give for `CC(C(O)c1ccc(O)cc1)N1CCC(Cc2ccccc2)CC1` (stereo not shown) [ifenprodil] here?
**A.** increase

**Q.** And the “concentration of 14-dehydrozymosterol” value [2]?
**A.** increase

**Q.** And the “concentration from which the sum of neurite lengths was significantly increased” value [5]?
**A.** 1 µmol/L

**Q.** What about the “concentration from which the positive area of the neuromuscular junction was significantly increased” value [1] of the same compound?
**A.** 1 µmol/L

**Q.** And the “dose from which the grip strength was significantly improved” value [6]?
**A.** 3 mg/kg

**Q.** Which “intracellular FF-MAS concentration” value [2] does the source give for `O=C1Cc2cc(CCN3CCN(c4nsc5ccccc45)CC3)c(Cl)cc2N1` [ziprasidone] here?
**A.** increase

**Q.** What about the “concentration of 14-dehydrozymosterol” value [2] of the same compound?
**A.** increase

**Q.** What about the “concentration from which the sum of neurite lengths was significantly increased” value [5] of the same compound?
**A.** 1 µmol/L

**Q.** And the “concentration from which the positive area of the neuromuscular junction was significantly increased” value [1]?
**A.** 3 µmol/L

**Q.** Which results are given for `CC(C)=CCC[C@@H](C)[C@H]1CC=C2C3=C(CC[C@@]21C)[C@@]1(C)CC[C@H](O)C(C)(C)[C@@H]1CC3` [FF-MAS, 4,4-dimethyl-5alpha-cholesta-8,14,24-trien-3beta-ol]?
**A.** concentration from which the sum of neurite lengths was significantly increased [5]: 1.1 µmol/L; concentration from which the positive area of the neuromuscular junction was significantly increased [1]: 10 µmol/L; concentration from which the value of MAG/number of cell nuclei was significantly increased [7]: 3 µmol/L
